Source: US20200060276A1, “THIAZOLE COMPOUND AND HERBICIDE” (OAT Agrio Co., Ltd., priority 2017, published 2020)

Legend:
Assay type in all cases: in vivo
Cyperus microiria = experiment: Test for Herbicidal Effect in Flooding Treatment (#1), CYMIC; details: flooding treatment at seeding, dose 2 kg/ha, visual observation on day 21
Protocol: (#1) Test for Herbicidal Effect in Flooding Treatment: Styrol cups each having an opening diameter of 8 cm (about 52 cm^2) were respectively filled with soil (45 ml) which had been passed through a sieve (2 mm). Water (about 115 ml) was mixed with the soil such that the soil was flooded. After the soil stood still for 24 hours, Monochoria vaginalis, Echinochloa crus-galli (L.) P. Beauv. var. formosensis Ohwi, Cyperus difformis (umbrella sedge), and Scirpus juncoides were seeded. Each of the compounds of the present invention was dissolved in acetone, and the obtained product was then diluted with water containing Tween 80®. Each of the resultant chemical solutions was dropped on the entire surface of an associated one of treatment sections, so that each section was treated with 1 ml of the respective chemical solution (a dose of 2 kg/ha). After the treatment, the plants were grown in a glasshouse. On day 21, a survey was conducted on the herbicidal activity by visual observation, and evaluation was made according to the following criteria. 0: Growth inhibition effect is less than 10%. 1: Growth inhibition effect is equal to or greater than 10%, and less than 30%. 2; Growth inhibition effect is equal to or greater than 30%, and less than 50%. 3: Growth inhibition effect equal to or greater than 50%, and less than 70%. 4: Growth inhibition effect is equal to or greater than 70%, and less than 90%. 5: Growth inhibition effect is equal to or greater than 90%, or complete withering is achieved. ECHDG=Echinochloa crus-galli (L.) P. Beauv. var. formosensis Ohwi, MONVA=Monochoria vaginalis, SCIJU=Scirpus juncoides, CYMIC=Cyperus microiria.

[1] = tested on: Echinochloa crus-galli (L.) P. Beauv. var. formosensis Ohwi; experiment: Test for Herbicidal Effect in Flooding Treatment (#1), ECHDG; details: for ECHDG #1 herbicidal effect (growth inhibition grade): flooding treatment at seeding, dose 2 kg/ha, visual observation on day 21
Summary of the method: (§1)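 Visual scores from 0 (<10% inhibition) to 5 (≥90% or complete withering) were taken 21 days after treatment of glasshouse-grown plants. Seeds were sown in soil flooded for 24 h beforehand, and compound was applied dropwise onto the surface at 2 kg/ha as an acetone solution diluted in water with Tween 80.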

[2] = tested on: Echinochloa crus-galli (L.) P. Beauv. var. formosensis Ohwi; experiment: Test for Herbicidal Effect in Flooding Treatment (#2), ECHDG at 2-2.5 leaf stage; details: for ECHDG (2-2.5L) #2 herbicidal effect (growth inhibition grade): flooding treatment at 2-2.5 leaf stage, dose 0.2 kg/ha, visual observation on day 21
Summary of the method: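 Flooded muddy soil was seeded with the weed, and at 2–2.5 leaf stage compound in acetone/Tween 80 water was dropped on the water surface at 0.2 kg/ha. Plants were kept in a glasshouse and scored visually on day 21 from 0 (<10% growth inhibition) to 5 (≥90% or complete withering).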

Scirpus juncoides = experiment: Test for Herbicidal Effect in Flooding Treatment (#1), SCIJU; details: for SCIJU #1 herbicidal effect (growth inhibition grade): flooding treatment at seeding, dose 2 kg/ha, visual observation on day 21
Summary of the method: as §1

Monochoria vaginalis = experiment: Test for Herbicidal Effect in Flooding Treatment (#1), MONVA; details: for MONVA #1 herbicidal effect (growth inhibition grade): flooding treatment at seeding, dose 2 kg/ha, visual observation on day 21
Summary of the method: as §1

Structure (SMILES)	CYMIC #1 herbicidal effect (growth inhibition grade) (Cyperus microiria)	ECHDG #1 herbicidal effect (growth inhibition grade) [1]	ECHDG (2-2.5L) #2 herbicidal effect (growth inhibition grade) [2]	SCIJU #1 herbicidal effect (growth inhibition grade) (Scirpus juncoides)	MONVA #1 herbicidal effect (growth inhibition grade) (Monochoria vaginalis)	MONVA #1 herbicidal effect (growth inhibition rating 0-5) (Monochoria vaginalis; flooding treatment #1)	ECHDG #1 herbicidal effect (growth inhibition rating 0-5) ([1]; flooding treatment #1)	ECHDG (2-2.5L) #2 herbicidal effect (growth inhibition rating 0-5) ([2]; flooding treatment #2, 2-2.5 leaf stage)	SCIJU #1 herbicidal effect (growth inhibition rating 0-5) (Scirpus juncoides; flooding treatment #1)
CCOc1c(Cl)cc(Cl)c(Cl)c1CS(=O)(=O)c1ncc(Cl)s1 [Compound 1C-34]	5 (Growth inhibition effect is equal to or greater than 90%, or complete withering is achieved)	5 (Growth inhibition effect is equal to or greater than 90%, or complete withering is achieved)	4 (Growth inhibition effect is equal to or greater than 70%, and less than 90%)	5 (Growth inhibition effect is equal to or greater than 90%, or complete withering is achieved)	–	–	–	–	–
CCOc1cc(F)c(CS(=O)(=O)c2ncc(Cl)s2)c(F)c1 [Compound 1C-103]	5 (Growth inhibition effect is equal to or greater than 90%, or complete withering is achieved)	5 (Growth inhibition effect is equal to or greater than 90%, or complete withering is achieved)	5 (Growth inhibition effect is equal to or greater than 90%, or complete withering is achieved)	5 (Growth inhibition effect is equal to or greater than 90%, or complete withering is achieved)	–	–	–	–	–
COc1cc(F)c(CS(=O)(=O)c2ncc(Cl)s2)c(F)c1 [Compound 1C-90]	5 (Growth inhibition effect is equal to or greater than 90%, or complete withering is achieved)	5 (Growth inhibition effect is equal to or greater than 90%, or complete withering is achieved)	5 (Growth inhibition effect is equal to or greater than 90%, or complete withering is achieved)	5 (Growth inhibition effect is equal to or greater than 90%, or complete withering is achieved)	–	–	–	–	–
COc1cccc(OC)c1CS(=O)(=O)c1ncc(Cl)s1 [Compound 1C-127]	5 (Growth inhibition effect is equal to or greater than 90%, or complete withering is achieved)	5 (Growth inhibition effect is equal to or greater than 90%, or complete withering is achieved)	–	5 (Growth inhibition effect is equal to or greater than 90%, or complete withering is achieved)	–	–	–	–	–
CCOc1ccc(Cl)cc1C(F)(F)S(=O)(=O)c1ncc(Cl)s1 [Compound 1C-138]	–	5 (Growth inhibition effect is equal to or greater than 90%, or complete withering is achieved)	3 (Growth inhibition effect equal to or greater than 50%, and less than 70%)	5 (Growth inhibition effect is equal to or greater than 90%, or complete withering is achieved)	5 (Growth inhibition effect is equal to or greater than 90%, or complete withering is achieved)	–	–	–	–
O=S(=O)(Cc1ccccc1OCC(F)(F)F)c1ncc(Cl)s1 [Compound 1C-53]	–	5 (Growth inhibition effect is equal to or greater than 90%, or complete withering is achieved)	5 (Growth inhibition effect is equal to or greater than 90%, or complete withering is achieved)	5 (Growth inhibition effect is equal to or greater than 90%, or complete withering is achieved)	5 (Growth inhibition effect is equal to or greater than 90%, or complete withering is achieved)	–	–	–	–
[2H]C([2H])(c1c(Cl)cccc1OC(F)F)S(=O)(=O)c1ncc(Cl)s1 [Compound 1C-132]	–	5 (Growth inhibition effect is equal to or greater than 90%, or complete withering is achieved)	5 (Growth inhibition effect is equal to or greater than 90%, or complete withering is achieved)	5 (Growth inhibition effect is equal to or greater than 90%, or complete withering is achieved)	5 (Growth inhibition effect is equal to or greater than 90%, or complete withering is achieved)	–	–	–	–
O=S(=O)(Cc1c(OC(F)F)ccc(Cl)c1F)c1ncc(Cl)s1 [Compound 1C-45]	–	5 (Growth inhibition effect is equal to or greater than 90%, or complete withering is achieved)	5 (Growth inhibition effect is equal to or greater than 90%, or complete withering is achieved)	5 (Growth inhibition effect is equal to or greater than 90%, or complete withering is achieved)	5 (Growth inhibition effect is equal to or greater than 90%, or complete withering is achieved)	–	–	–	–
[O-][S+](Cc1c(F)cccc1OC(F)F)c1ncc(Cl)s1 (stereo not shown) [Compound 1B-3]	–	–	–	–	–	5 (Growth inhibition effect is equal to or greater than 90%, or complete withering is achieved)	5 (Growth inhibition effect is equal to or greater than 90%, or complete withering is achieved)	5 (Growth inhibition effect is equal to or greater than 90%, or complete withering is achieved)	5 (Growth inhibition effect is equal to or greater than 90%, or complete withering is achieved)
CC(c1c(F)cccc1OCCC(F)(F)F)S(=O)(=O)c1ncc(Cl)s1 (racemic) [Compound 1C-149]	–	5 (Growth inhibition effect is equal to or greater than 90%, or complete withering is achieved)	4 (Growth inhibition effect is equal to or greater than 70%, and less than 90%)	5 (Growth inhibition effect is equal to or greater than 90%, or complete withering is achieved)	5 (Growth inhibition effect is equal to or greater than 90%, or complete withering is achieved)	–	–	–	–
O=S(=O)(Cc1c(F)cccc1OCC(F)F)c1ncc(Cl)s1 [Compound 1C-50]	–	5 (Growth inhibition effect is equal to or greater than 90%, or complete withering is achieved)	5 (Growth inhibition effect is equal to or greater than 90%, or complete withering is achieved)	5 (Growth inhibition effect is equal to or greater than 90%, or complete withering is achieved)	5 (Growth inhibition effect is equal to or greater than 90%, or complete withering is achieved)	–	–	–	–
CC(=O)C(c1c(F)cccc1OC(F)F)S(=O)(=O)c1ncc(Cl)s1 (racemic) [Compound 1C-146]	–	5 (Growth inhibition effect is equal to or greater than 90%, or complete withering is achieved)	5 (Growth inhibition effect is equal to or greater than 90%, or complete withering is achieved)	5 (Growth inhibition effect is equal to or greater than 90%, or complete withering is achieved)	5 (Growth inhibition effect is equal to or greater than 90%, or complete withering is achieved)	–	–	–	–
O=S(=O)(Cc1c(OC(F)F)ccc(Cl)c1F)c1ncc(Br)s1 [Compound 1C-157]	–	5 (Growth inhibition effect is equal to or greater than 90%, or complete withering is achieved)	5 (Growth inhibition effect is equal to or greater than 90%, or complete withering is achieved)	5 (Growth inhibition effect is equal to or greater than 90%, or complete withering is achieved)	5 (Growth inhibition effect is equal to or greater than 90%, or complete withering is achieved)	–	–	–	–
O=S(=O)(Cc1c(Cl)cccc1OC(F)F)c1ncc(Br)s1 [Compound 1C-154]	–	5 (Growth inhibition effect is equal to or greater than 90%, or complete withering is achieved)	5 (Growth inhibition effect is equal to or greater than 90%, or complete withering is achieved)	5 (Growth inhibition effect is equal to or greater than 90%, or complete withering is achieved)	5 (Growth inhibition effect is equal to or greater than 90%, or complete withering is achieved)	–	–	–	–
